The values that follow come from US11267861B2, “Peptide-oligourea foldamer compounds and methods of their use” (UREKA SARL, priority 2016, dated 2022).

Data set [1] concerns the target T1, human glucagon receptor (Homo sapiens, UniProt P47871).
T1 construct: expressed in transfected cells; host or cells: CHO cells
In words: Glucagon functional assay: agonist activity by cAMP production (HTRF) in transfected CHO cells. The format is cell-based. To be noted: cAMP production, transfected CHO cells, 10 minutes at 37° C. The protocol:
Functional Assay to Examine Bioactivity of Glucagon Receptor Agonists. Evaluation of the agonist activity of compounds at the human glucagon receptor expressed in transfected CHO cells was examined by measuring their effects on cAMP production using the HTRF detection method. […] For stimulated control measurement, separate assay wells contain 100 nM glucagon were utilized.
Following incubation, the cells were lysed and the fluorescence acceptor (D2-labeled cAMP) and fluorescence donor (anti-cAMP antibody labeled with europium cryptate) were added. […] The results are expressed as a percent of the control response to 100 nM glucagon. The standard reference agonist is glucagon, which was tested in each experiment at several concentrations to generate a concentration-response curve from which its EC50 value was calculated.
HTRF (Homogeneous Time-Resolved Fluorescence) principle. The HTRF technology is based on time resolved fluorescence energy transfer (TR-FRET), which occurs between long-lived fluorophore Europium or Terbium Cryptates, and EuK or Tb respectively, as a donor and the allophycocyanin XL665, d2 or Red as acceptor. Many compounds and proteins present in biological fluids or serum are naturally fluorescent, and the use of conventional, prompt fluorescence leads to serious limitations in assay sensitivity. The use of long-lived fluorophore combined with time-resolved detection (a delay between excitation and emission detection) minimizes prompt fluorescence interference.
(In general: cAMP levels reflect the balance of adenylyl cyclase and phosphodiesterase activity.)

Data set [2] is described as follows: Solubility of glucagon analogs (UV absorbance).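 For all read-outs here: peptide stock at 3 mg/ml in 0.01 M HCl, absorbance at 280 nm read before neutralization and again on the diluted supernatant after centrifugation.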 The data set is classed as physicochemical. The conditions noted are these: for solubility: 0.01M HCl solution adjusted to pH 7 with Na2HPO4, pH 7, pH adjusted to 7 with Na2HPO4, incubated overnight at 4° C.; for ratio (solubility relative to reference compound 16): relative to compound 16.
Description: A solution of 3 mg/ml of glucagon (or analog) was prepared in a 0.01M HCl solution. Then 0.1 ml of the stock solution was diluted to 1 ml with HCl (0.01M) and the UV absorbance measured (to 280 nm) with nanodrop UV spectrometer. The pH of the remaining stock solution was adjusted to 7 using Na2HPO4, and the solution was incubated overnight at 4° C. The solution was then centrifuged three times (5 minutes, 4000 rotations per minute), 0.1 ml of the supernatant was removed and diluted to 1 ml with HCl solution (0.01M).
The final UV absorbance was measured.

Values after ≈ are worked out from the molar mass of the structure shown. Numbered stars: 1 amine (or outer) side, 2 acyl side, 3 side chain; on linkers, the order of the positions; unused ones are H or OH. Bridge positions count the residues as written; N and C are the ends. Square brackets hold non-standard residues; d marks the D form. Peptide text beside a SMILES is read from it. I, II: the chains in the order shown. X1 = C[C@@H](CNC(=O)[*:1])N[*:2]; Nle = CCCC[C@H](N)C(=O)O

T1 sequence (P47871 26-477): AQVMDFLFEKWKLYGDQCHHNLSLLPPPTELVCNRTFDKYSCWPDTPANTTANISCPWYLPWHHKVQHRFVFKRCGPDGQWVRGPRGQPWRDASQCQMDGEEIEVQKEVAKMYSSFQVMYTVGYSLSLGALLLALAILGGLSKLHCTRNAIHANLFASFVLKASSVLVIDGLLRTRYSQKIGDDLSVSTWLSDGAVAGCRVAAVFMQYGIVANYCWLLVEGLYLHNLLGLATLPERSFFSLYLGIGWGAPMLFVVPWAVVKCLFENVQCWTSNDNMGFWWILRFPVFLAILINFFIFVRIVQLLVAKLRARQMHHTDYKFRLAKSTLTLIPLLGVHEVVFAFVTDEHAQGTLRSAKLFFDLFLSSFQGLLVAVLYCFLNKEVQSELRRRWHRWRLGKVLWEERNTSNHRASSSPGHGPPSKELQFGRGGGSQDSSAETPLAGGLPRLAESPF

For `CCCC[C@H](NC(=O)[C@H](CC(C)C)NC(=O)[C@H](Cc1c[nH]c2ccccc12)NC(=O)[C@H](CCC(N)=O)NC(=O)[C@@H](NC(=O)[C@H](Cc1ccccc1)NC(=O)[C@H](CC(=O)O)NC(=O)[C@H](CCC(N)=O)NC(=O)NC[C@H](C)NC(=O)[C@H](CCCNC(=N)N)NC(=O)[C@H](CCCNC(=N)N)NC(=O)[C@H](CO)NC(=O)[C@H](CC(=O)O)NC(=O)[C@H](CC(C)C)NC(=O)[C@H](Cc1ccc(O)cc1)NC(=O)[C@H](CCCCN)NC(=O)[C@H](CO)NC(=O)[C@H](Cc1ccc(O)cc1)NC(=O)[C@H](CC(=O)O)NC(=O)[C@H](CO)NC(=O)[C@@H](NC(=O)[C@H](Cc1ccccc1)NC(=O)[C@@H](NC(=O)CNC(=O)[C@H](CCC(N)=O)NC(=O)[C@H](CO)NC(=O)[C@@H](N)Cc1c[nH]cn1)[C@@H](C)O)[C@@H](C)O)C(C)C)C(=O)N[C@@H](CC(N)=O)C(=O)N[C@H](C(=O)O)[C@@H](C)O` [Compound 54], the EC50 in data set [1] was determined as 32 nM. In addition, in data set [2], the solubility was determined as 630 µg/mL (≈ 180 µM) and the “ratio (solubility relative to reference compound 16)” value was determined as 2.5.
On the same counts, the results for `CCCC[C@H](NC(=O)NC[C@H](C)NC(=O)[C@H](Cc1c[nH]c2ccccc12)NC(=O)[C@H](CCC(N)=O)NC(=O)[C@@H](NC(=O)[C@H](Cc1ccccc1)NC(=O)[C@H](CC(=O)O)NC(=O)[C@H](CCC(N)=O)NC(=O)[C@H](C)NC(=O)[C@H](CCCNC(=N)N)NC(=O)[C@H](CCCNC(=N)N)NC(=O)[C@H](CO)NC(=O)[C@H](CC(=O)O)NC(=O)[C@H](CC(C)C)NC(=O)[C@H](Cc1ccc(O)cc1)NC(=O)[C@H](CCCCN)NC(=O)[C@H](CO)NC(=O)[C@H](Cc1ccc(O)cc1)NC(=O)[C@H](CC(=O)O)NC(=O)[C@H](CO)NC(=O)[C@@H](NC(=O)[C@H](Cc1ccccc1)NC(=O)[C@@H](NC(=O)CNC(=O)[C@H](CCC(N)=O)NC(=O)[C@H](CO)NC(=O)[C@@H](N)Cc1c[nH]cn1)[C@@H](C)O)[C@@H](C)O)C(C)C)C(=O)N[C@@H](CC(N)=O)C(=O)N[C@H](C(=O)O)[C@@H](C)O` [Compound 58] are 35 nM, 1510 µg/mL (≈ 437 µM) and 6.0.
The corresponding values for `CCCC[C@H](NC(=O)[C@H](CC(C)C)NC(=O)[C@H](Cc1c[nH]c2ccccc12)NC(=O)[C@H](CCC(N)=O)NC(=O)NC[C@@H](NC(=O)[C@H](Cc1ccccc1)NC(=O)[C@H](CC(=O)O)NC(=O)[C@H](CCC(N)=O)NC(=O)[C@H](C)NC(=O)[C@H](CCCNC(=N)N)NC(=O)[C@H](CCCNC(=N)N)NC(=O)[C@H](CO)NC(=O)[C@H](CC(=O)O)NC(=O)[C@H](CC(C)C)NC(=O)[C@H](Cc1ccc(O)cc1)NC(=O)[C@H](CCCCN)NC(=O)[C@H](CO)NC(=O)[C@H](Cc1ccc(O)cc1)NC(=O)[C@H](CC(=O)O)NC(=O)[C@H](CO)NC(=O)[C@@H](NC(=O)[C@H](Cc1ccccc1)NC(=O)[C@@H](NC(=O)CNC(=O)[C@H](CCC(N)=O)NC(=O)[C@H](CO)NC(=O)[C@@H](N)Cc1c[nH]cn1)[C@@H](C)O)[C@@H](C)O)C(C)C)C(=O)N[C@@H](CC(N)=O)C(=O)N[C@H](C(=O)O)[C@@H](C)O` [Compound 63] are 30 nM, 1280 µg/mL (≈ 366 µM) and 5.1.
Compound `CCCC[C@H](NC(=O)[C@H](CC(C)C)NC(=O)[C@H](Cc1c[nH]c2ccccc12)NC(=O)[C@H](CCC(N)=O)NC(=O)[C@@H](NC(=O)[C@H](Cc1ccccc1)NC(=O)[C@H](CC(=O)O)NC(=O)[C@H](CCC(N)=O)NC(=O)[C@H](C)NC(=O)[C@H](CCCNC(=N)N)NC(=O)[C@H](CCCNC(=N)N)NC(=O)[C@H](CO)NC(=O)[C@H](CC(=O)O)NC(=O)NC[C@H](C)NC(=O)[C@H](Cc1ccc(O)cc1)NC(=O)[C@H](CCCCN)NC(=O)[C@H](CO)NC(=O)[C@H](Cc1ccc(O)cc1)NC(=O)[C@H](CC(=O)O)NC(=O)[C@H](CO)NC(=O)[C@@H](NC(=O)[C@H](Cc1ccccc1)NC(=O)[C@@H](NC(=O)CNC(=O)[C@H](CCC(N)=O)NC(=O)[C@H](CO)NC(=O)[C@@H](N)Cc1c[nH]cn1)[C@@H](C)O)[C@@H](C)O)C(C)C)C(=O)N[C@@H](CC(N)=O)C(=O)N[C@H](C(=O)O)[C@@H](C)O` [Compound 51] (I: DSRRAQDFVQWL[Nle]NT-OH / II: H-HSQGTFTSDYSKY; linker I:N-II:C via X1; C-terminus assumed) showed an EC50 in data set [1] of 68 nM. In addition, in data set [2], the solubility was determined as 560 µg/mL (≈ 162 µM) and the “ratio (solubility relative to reference compound 16)” value was 2.2.
As for `CCCC[C@H](NC(=O)[C@H](CC(C)C)NC(=O)NC[C@H](C)NC(=O)[C@H](CCC(N)=O)NC(=O)[C@@H](NC(=O)[C@H](Cc1ccccc1)NC(=O)[C@H](CC(=O)O)NC(=O)[C@H](CCC(N)=O)NC(=O)[C@H](C)NC(=O)[C@H](CCCNC(=N)N)NC(=O)[C@H](CCCNC(=N)N)NC(=O)[C@H](CO)NC(=O)[C@H](CC(=O)O)NC(=O)[C@H](CC(C)C)NC(=O)[C@H](Cc1ccc(O)cc1)NC(=O)[C@H](CCCCN)NC(=O)[C@H](CO)NC(=O)[C@H](Cc1ccc(O)cc1)NC(=O)[C@H](CC(=O)O)NC(=O)[C@H](CO)NC(=O)[C@@H](NC(=O)[C@H](Cc1ccccc1)NC(=O)[C@@H](NC(=O)CNC(=O)[C@H](CCC(N)=O)NC(=O)[C@H](CO)NC(=O)[C@@H](N)Cc1c[nH]cn1)[C@@H](C)O)[C@@H](C)O)C(C)C)C(=O)N[C@@H](CC(N)=O)C(=O)N[C@H](C(=O)O)[C@@H](C)O` [Compound 57], the midpoint of the response in data set [1], the EC50, lay at 22 nM. For the same compound, in data set [2], the solubility amounted to 970 µg/mL (≈ 287 µM) and the “ratio (solubility relative to reference compound 16)” value is given as 3.9.
On the same counts, the results for `CCCC[C@H](NC(=O)[C@H](CC(C)C)NC(=O)[C@H](Cc1c[nH]c2ccccc12)NC(=O)[C@H](CCC(N)=O)NC(=O)[C@@H](NC(=O)[C@H](Cc1ccccc1)NC(=O)NC[C@H](CC(=O)O)NC(=O)[C@H](CCC(N)=O)NC(=O)[C@H](C)NC(=O)[C@H](CCCNC(=N)N)NC(=O)[C@H](CCCNC(=N)N)NC(=O)[C@H](CO)NC(=O)[C@H](CC(=O)O)NC(=O)[C@H](CC(C)C)NC(=O)[C@H](Cc1ccc(O)cc1)NC(=O)[C@H](CCCCN)NC(=O)[C@H](CO)NC(=O)[C@H](Cc1ccc(O)cc1)NC(=O)[C@H](CC(=O)O)NC(=O)[C@H](CO)NC(=O)[C@@H](NC(=O)[C@H](Cc1ccccc1)NC(=O)[C@@H](NC(=O)CNC(=O)[C@H](CCC(N)=O)NC(=O)[C@H](CO)NC(=O)[C@@H](N)Cc1c[nH]cn1)[C@@H](C)O)[C@@H](C)O)C(C)C)C(=O)N[C@@H](CC(N)=O)C(=O)N[C@H](C(=O)O)[C@@H](C)O` [Compound 61] are 0.1 nM, 740 µg/mL (≈ 212 µM) and 2.9.
The corresponding values for `CCCC[C@H](NC(=O)[C@H](CC(C)C)NC(=O)[C@H](Cc1c[nH]c2ccccc12)NC(=O)[C@H](CCC(N)=O)NC(=O)[C@@H](NC(=O)[C@H](Cc1ccccc1)NC(=O)[C@H](CC(=O)O)NC(=O)NC[C@H](CCC(N)=O)NC(=O)[C@H](C)NC(=O)[C@H](CCCNC(=N)N)NC(=O)[C@H](CCCNC(=N)N)NC(=O)[C@H](CO)NC(=O)[C@H](CC(=O)O)NC(=O)[C@H](CC(C)C)NC(=O)[C@H](Cc1ccc(O)cc1)NC(=O)[C@H](CCCCN)NC(=O)[C@H](CO)NC(=O)[C@H](Cc1ccc(O)cc1)NC(=O)[C@H](CC(=O)O)NC(=O)[C@H](CO)NC(=O)[C@@H](NC(=O)[C@H](Cc1ccccc1)NC(=O)[C@@H](NC(=O)CNC(=O)[C@H](CCC(N)=O)NC(=O)[C@H](CO)NC(=O)[C@@H](N)Cc1c[nH]cn1)[C@@H](C)O)[C@@H](C)O)C(C)C)C(=O)N[C@@H](CC(N)=O)C(=O)N[C@H](C(=O)O)[C@@H](C)O` [Compound 60] are 36 nM, 830 µg/mL (≈ 238 µM) and 3.3.
On the same counts, the results for `CCCC[C@H](NC(=O)[C@H](CC(C)C)NC(=O)[C@H](Cc1c[nH]c2ccccc12)NC(=O)NC[C@H](C)NC(=O)[C@@H](NC(=O)[C@H](Cc1ccccc1)NC(=O)[C@H](CC(=O)O)NC(=O)[C@H](CCC(N)=O)NC(=O)[C@H](C)NC(=O)[C@H](CCCNC(=N)N)NC(=O)[C@H](CCCNC(=N)N)NC(=O)[C@H](CO)NC(=O)[C@H](CC(=O)O)NC(=O)[C@H](CC(C)C)NC(=O)[C@H](Cc1ccc(O)cc1)NC(=O)[C@H](CCCCN)NC(=O)[C@H](CO)NC(=O)[C@H](Cc1ccc(O)cc1)NC(=O)[C@H](CC(=O)O)NC(=O)[C@H](CO)NC(=O)[C@@H](NC(=O)[C@H](Cc1ccccc1)NC(=O)[C@@H](NC(=O)CNC(=O)[C@H](CCC(N)=O)NC(=O)[C@H](CO)NC(=O)[C@@H](N)Cc1c[nH]cn1)[C@@H](C)O)[C@@H](C)O)C(C)C)C(=O)N[C@@H](CC(N)=O)C(=O)N[C@H](C(=O)O)[C@@H](C)O` [Compound 56] are 0.072 nM, 700 µg/mL (≈ 204 µM) and 2.8.

One may read the EC50 as the concentration that produces a half-maximal response. High values mean a need for much substance, low ones an effect from little substance. As usually defined, the solubility is the dissolved amount per volume that the medium holds. A lower solubility goes with a poorly soluble substance.
